These are literature values, as cited in patent publication US20070032460A1, “Use of voacamine and related compounds in the treatment of malaria” (priority 2005, published 2007).

For the series, the system named is multi-drug resistant tumor cells. The settings on record: cited from earlier work.

For the compound `CC=C1CN(C)C2Cc3c([nH]c4ccccc34)C(c3cc4[nH]c5c(c4cc3OC)CCN3CC4CC(CC)C3C5(C(=O)OC)C4)CC1C2C(=O)OC` (stereo not shown) [VOA, Voacamine], the “effect on vinblastine-mediated cytotoxicity” value was “enhance vinblastine-mediated cytotbxicity”.
